The subject of one experiment is Penicillium expansum. As to the kind of experiment: Fungicidal activity, fumigation of Penicillium expansum spore plates in sealed 6 L containers. Format: cell-based. The following applies: 24 h exposure, further 48 h incubation; for MIC: Penicillium expansum, 24 h. On the procedure:
Experiments were conducted to determine the fungicidal activity of several compounds of the invention using Penicillium expansum as the test organism.
Plates of potato dextrose agar were streaked with a standard culture of Penicillium expansum spores (0.1 ml of a 2×10^5 cfu/ml) and placed in sealed plastic containers (nominal volume 6 liters). The containers (Rubbermaid) were fitted with a small fan (Radio Shack 12VDC) in the lids to ensure good distribution of the test compounds. The plates were exposed to different volumes (2.5 μl, 5 μl, 10 μl, 20 μl, 40 μl, 80 μl, or 120 μl) of standard solutions (1.0 to 4.0 mg/ml) of tested compounds in ethanol, under ambient conditions. After exposing for 24 h, the plates were removed and incubated for a further 48 h, at ambient temperature, and then monitored for growth of the test organism by visual observation.
The following tables provide summary results of three separate studies to determine the minimum amounts of the compounds needed to produce 100% inhibition of growth of the test organism. Results are expressed as minimal volumes (μl/6 L) and amounts (μg/L) required to produce 100% inhibition.

The subject of experiment [1] is Staphylococcus aureus (MRSA) (ATCC 33591). As to the kind of experiment: MIC and MBC of Compound 1 and analogs, macrodilution. The following applies: for MIC: 19 h; for MBC: 25 h.
The mark [2] stands for this setting: Experiment #1, read-out: Amount for 100% inhibition (μg compound/L air).
The mark [3] stands for this setting: Experiment #2, read-out: Amount for 100% inhibition (μg compound/L air).
Setting [4] is: Experiment #3, read-out: Amount for 100% inhibition (μg compound/L air).
The mark [5] stands for this setting: Experiment #4, read-out: Amount for 100% inhibition (μg compound/L air).
Setting [6] is: Experiment #5, read-out: Amount for 100% inhibition (μg compound/L air).
Where [7] appears, read: Experiment #6, read-out: Amount for 100% inhibition (μg compound/L air).
Setting [8] is: read-out: Amount for 100% inhibition (μg compound/L air), Experiment #1.

Structures are written as SMILES. Converted amounts (≈) assume the structure as drawn. Where two headings read alike, the source gives them in different places. A value given as a limit tells only on which side of the number the result lay.

For orientation: MBC means the lowest tested concentration that kills the bacteria rather than only halting them.

Regarding `CCCC(=O)N(C)N=O` [Compound 13, N-methyl-N-nitrosobutyramide], the MIC with Penicillium expansum (setting [2]) was 0.0092 µg/mL (≈ 0.0707 µM); in the experiment on Penicillium expansum (setting [3]), 0.0071 µg/mL (≈ 0.0546 µM); in the experiment with Penicillium expansum (setting [4]), 0.0075 µg/mL (≈ 0.0576 µM). Take `CCCCCC(=O)N(C)N=O` [Compound 2, N-methyl-N-nitrosohexanamide]: the MIC with Penicillium expansum (setting [5]) amounted to 0.0043 µg/mL (≈ 0.0272 µM).

On to `C/C=C/C(=O)N(C)N=O` [Compound 8, (2E)-N-methyl-N-nitrosobut-2-enamide], for which the MIC in the experiment with Penicillium expansum (setting [6]) came out at 0.0075 µg/mL (≈ 0.0585 µM). In the case of `CN(N=O)C(=O)CC1CC1` [Compound 3, 2-cyclopropyl-N-methyl-N-nitrosoacetamide], the MIC with Penicillium expansum (setting [7]) was 0.005 µg/mL (≈ 0.0352 µM). Take `CCCCC(=O)N(C)N=O` [Compound 21, N-methyl-N-nitrosopentanamide]: the MIC in the experiment with Penicillium expansum (setting [5]) was 0.0163 µg/mL (≈ 0.113 µM). With `COCC(=O)N(C)N=O` [drawing 50], in experiment [1], the MIC was 25 µg/mL and the MBC was over 50 µg/mL.

Take `C=CC(=O)N(C)N=O` [Compound 4, N-methyl-N-nitrosoacrylamide]: the MIC in the experiment with Penicillium expansum (setting [6]) was found to be 0.0011 µg/mL (≈ 0.00964 µM).

`CC(C)C(=O)N(C)N=O` [Compound 10, N-methyl-N-nitrosisopropanamide]: the “Amount for 100% inhibition (μg compound/L air)” value in the experiment with Penicillium expansum (Experiment #4) is given as over 14.4 μg compound/L air. On to `CC(=O)N(N=O)C1CC1` [Compound 14, N-cyclopropyl-N-nitrosoacetamide], for which, in the experiment on Penicillium expansum (setting [2]), the MIC came to 0.0278 µg/mL (≈ 0.217 µM).

Take `CCCN(N=O)C(C)=O` [Compound 12, N-nitroso-N-propylacetamide]: in the experiment on Penicillium expansum (setting [8]), the MIC stood at 0.0252 µg/mL (≈ 0.194 µM). Consider `CCC(=O)N(C)N=O` [drawing 53], for which, in experiment [1], the MIC amounted to 12.5 µg/mL and the MBC came out at 25 µg/mL. As for `CCCCCCC(=O)N(C)N=O` [drawing 54], in experiment [1], the MIC was 6.25 µg/mL and the MBC worked out at 25 µg/mL.

With `C/C=C/C(=O)N(C)N=O` [drawing 52], in experiment [1], the MIC is 6.25 µg/mL and the MBC came out at 25 µg/mL.

Take `O=NN1CCCC1=O` [Compound 18, 1-nitrosopyrrolidin-2-one]: the MIC is over 0.084 µg/mL in the experiment on Penicillium expansum (setting [3]) and over 0.0163 µg/mL in the experiment on Penicillium expansum (setting [7]).

Consider `CN(N=O)C(=O)C1CC1` [Compound 7, N-methyl-N-nitrosocyclopropanecarboxamide], for which the MIC with Penicillium expansum (setting [2]) was 0.0101 µg/mL (≈ 0.0788 µM); in the experiment on Penicillium expansum (setting [3]), 0.01 µg/mL (≈ 0.078 µM); in the experiment with Penicillium expansum (setting [4]), 0.0082 µg/mL (≈ 0.064 µM). With `CCN(N=O)C(=O)C(C)C` [Compound 11, N-ethyl-N-nitrosoisobutyramide], in the experiment on Penicillium expansum (setting [7]), the MIC is over 0.0147 µg/mL. As for `CC(C)CC(=O)N(C)N=O` [drawing 55], in experiment [1], the MIC worked out at 0.78 µg/mL and the MBC stood at 25 µg/mL. Regarding `CC(C)CC(=O)N(C)N=O` [Compound 19, N-3-dimethyl-N-nitrosobutanamide], the “Amount for 100% inhibition (μg compound/L air)” value in the experiment on Penicillium expansum (Experiment #5) was over 15.5 μg compound/L air. For `CCC(C)C(=O)N(C)N=O` (centres unmarked) [Compound 22, N,2-dimethyl-N-nitrosobutanamide], the MIC with Penicillium expansum (setting [6]) is over 0.0152 µg/mL.

For `CCCCCCC(=O)N(C)N=O` [Compound 9, N-methyl-N-nitrosoheptanamide], the MIC in the experiment with Penicillium expansum (setting [5]) was 0.0075 µg/mL (≈ 0.0435 µM). As to `O=NN1CCCCC1=O` [Compound 17, 1-nitrosopiperidine-2-one], in the experiment on Penicillium expansum (setting [4]), the MIC is over 0.0036 µg/mL. In the case of `CN(N=O)C(=O)C1CCC1` [Compound 5, N-methyl-N-nitrosocyclobutanecarboxamide], in the experiment with Penicillium expansum (setting [6]), the MIC is 0.0012 µg/mL (≈ 0.00844 µM).

Turning to `C=CC(=O)N(C)N=O` [drawing 51], in experiment [1], the MIC was over 50 µg/mL and the MBC was over 50 µg/mL. With `CCC(=O)N(C)N=O` [Compound 20, N-methyl-N-nitrosopropanamide], the MIC with Penicillium expansum (setting [5]) came to 0.0075 µg/mL (≈ 0.0646 µM). For the molecule `COCC(=O)N(C)N=O` [Compound 6, 2-methoxy-N-methyl-N-nitrosoacetamide], the MIC with Penicillium expansum (setting [7]) was determined as 0.0022 µg/mL (≈ 0.0167 µM). Turning to `CC(=O)N(N=O)C(C)C` [Compound 16, N-isopropyl-N-nitrosoacetamide], the MIC in the experiment with Penicillium expansum (setting [3]) is over 0.0806 µg/mL; with Penicillium expansum (setting [8]), 0.025 µg/mL (≈ 0.192 µM).

(Values after patent US8728442B2, “Method of controlling the growth of microorganisms by a composition containing isolated or in vitro synthesized nitrosoamides” (Bayer CropScience LP, priority 2009, dated 2014).)
